# Laboratory results published in article PMC3681751, “Identification of a Novel Antimicrobial Peptide from Human Hepatitis B Virus Core Protein Arginine-Rich Domain (ARD)” (PLoS Pathogens, 2013).
# Read-outs that look alike come from different tables or passages of the source.
# What was measured:
# [1] = system: Vero cells; assay: Cytotoxicity, MTT assay; format: cell-based, monkey; details: 1 hour at 37°C; HBc147-183 at 100 µM, melittin at 3.125 µM; triplicates
# Protocol: (§1) Cytotoxicity was measured for HepG2, Huh7, HEK293, and Vero cells by MTT assay. Cells were seeded at 10^4 cells/well in a 96-well plate and serial dilutions of peptides were added into each well. PBS was used as a negative control and melittin was used as a positive control. After 1 hour of incubation, the medium were replaced by fresh medium containing 10% MTT solution (Promega), and the plate was incubated for 4 hours in 5% CO2 at 37°C. The absorbance at the wavelength of 595 nm was measured by an ELISA reader (Bio-Rad model 680).
# [2] = system: S. aureus (ATCC 25923); format: cell-based, Staphylococcus aureus; details: methicillin-resistant strain, triplicate
# Method in brief: (§2)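 Bacteria were grown overnight at 37°C in Mueller–Hinton broth and diluted at mid-log phase to 10^6 CFU/ml in pH 7.2 sodium phosphate/NaCl buffer. Peptide dilutions in that buffer were added, then 3 h static incubation at 37°C. Plating on agar overnight gave the minimal bactericidal concentration.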
# [3] = system: S. aureus (ATCC 19636); format: cell-based, Staphylococcus aureus; details: methicillin-resistant strain, triplicate
# Method in brief: as §2
# [4] = system: S. aureus (ATCC 29213); format: cell-based, Staphylococcus aureus; details: methicillin-resistant strain, triplicate
# Method in brief: as §2
# [5] = system: K. pneumonia (ATCC 13884); format: cell-based, Klebsiella pneumoniae; details: triplicate
# [6] = system: E. coli (ATCC 25922); format: cell-based, Escherichia coli; details: triplicate
# Method in brief: as §2
# [7] = system: C. albicans (ATCC 10231); format: cell-based, Candida albicans; details: fungi, triplicate
# Protocol: The antimicrobial activities of HBc ARD peptides were tested using a number of bacterial strains from ATCC, including Pseudomonas aeruginosa Migula strain (ATCC 27853, ampicillin-resistant), Pseudomonas aeruginosa Migula strain (ATCC 9027, ampicillin-resistant), Klebsiella pneumoniae strain (ATCC 17593), Escherichia coli strain (ATCC 25922), Staphylococcus aureus subsp. strain (ATCC 25923, methicillin-resistant), Staphylococcus aureus subsp. strain (ATCC 29213, methicillin-resistant), Staphylococcus aureus subsp. strain (ATCC 19636, methicillinresistant), and Candida albicans strain (ATCC 10231).
# All peptides were purchased from Yao-Hong Biotechnology Inc. (Taipei, Taiwan). Vendors provided data of peptide characterizations, including HPLC and Mass (data not shown). Antimicrobial activity was determined as described with some modifications as detailed below. Bacteria were grown overnight in Mueller–Hinton broth (Difco) at 37°C, and during the mid-logarithmic phase, bacteria were diluted to 10^6 CFU (colony formation unit)/ml in phosphate buffer (10 mM sodium phosphate and 50 mM sodium chloride, pH 7.2). Peptides were serially diluted in the same buffer. Fifty microliter (µl) of bacteria was mixed with fifty µl of peptides at varying concentrations followed by incubation at 37°C for 3 hours without shaking. At the end of incubation, bacteria were placed on Mueller-Hinton broth agar plates, and allowed growth at 37°C overnight for measurement of minimal bactericidal concentration (MBC). […] All peptides were tested in triplicate.
# [8] = system: P. aeruginosa (ATCC 9027); format: cell-based, Pseudomonas aeruginosa; details: ampicillin-resistant strain, triplicate
# Method in brief: as §2
# [9] = system: P. aeruginosa (ATCC 27853); format: cell-based, Pseudomonas aeruginosa; details: ampicillin-resistant strain, triplicate
# Method in brief: as §2
# [10] = system: Huh7 cells; assay: Cytotoxicity, MTT assay; format: cell-based, human; details: 1 hour at 37°C; HBc147-183 at 100 µM, melittin at 3.125 µM; triplicates
# Protocol: as §1
# [11] = system: HEK293 cells; assay: Cytotoxicity, MTT assay; format: cell-based, human; details: 1 hour at 37°C; HBc147-183 at 100 µM, melittin at 3.125 µM; triplicates
# Protocol: as §1
# [12] = system: HepG2 cells; assay: Cytotoxicity, MTT assay; format: cell-based, human; details: 1 hour at 37°C; HBc147-183 at 100 µM, melittin at 3.125 µM; triplicates
# Protocol: as §1
# [13] = 3 h at 37°C in 10 mM sodium phosphate, 50 mM NaCl, pH 7.2, 10^6 CFU/ml, ND = not detectable
# [14] = 3 h at 37°C in phosphate buffer pH 7.2
smiles,measurement,setting,value
"CC[C@H](C)[C@H](NC(=O)CN)C(=O)NCC(=O)N[C@@H](C)C(=O)N[C@H](C(=O)N[C@@H](CC(C)C)C(=O)N[C@@H](CCCCN)C(=O)N[C@H](C(=O)N[C@@H](CC(C)C)C(=O)N[C@H](C(=O)N[C@H](C(=O)NCC(=O)N[C@@H](CC(C)C)C(=O)N1CCC[C@H]1C(=O)N[C@@H](C)C(=O)N[C@@H](CC(C)C)C(=O)N[C@H](C(=O)N[C@@H](CO)C(=O)N[C@@H](Cc1c[nH]c2ccccc12)C(=O)N[C@H](C(=O)N[C@@H](CCCCN)C(=O)N[C@@H](CCCNC(=N)N)C(=O)N[C@@H](CCCCN)C(=O)N[C@@H](CCCNC(=N)N)C(=O)N[C@@H](CCC(N)=O)C(=O)N[C@@H](CCC(N)=O)C(N)=O)[C@@H](C)CC)[C@@H](C)CC)[C@@H](C)O)[C@@H](C)O)C(C)C)C(C)C [Melittin, reference compound]",Cell viability / cytotoxicity (MTT),[1],significantly decreased
same,"Antimicrobial activity, MBC",[2]; [13],2 µM
same,"Antimicrobial activity, MBC",[2]; [14],5.7 µg/mL
same,"Antimicrobial activity, MBC",[3]; [13],1 µM
same,"Antimicrobial activity, MBC",[3]; [14],2.85 µg/mL
same,"Antimicrobial activity, MBC",[4]; [13],1 µM
same,"Antimicrobial activity, MBC",[4]; [14],2.85 µg/mL
same,"Antimicrobial activity, MBC",[5]; [13],2 µM
same,"Antimicrobial activity, MBC",[5]; [14],5.7 µg/mL
same,"Antimicrobial activity, MBC",[6]; [13],2 µM
same,"Antimicrobial activity, MBC",[6]; [14],5.7 µg/mL
same,"Antimicrobial activity, MBC","[7]; 3 h at 37°C in 10 mM sodium phosphate, 50 mM NaCl, pH 7.2, ND = not detectable",4 µM
same,"Antimicrobial activity, MBC",[7]; [14],11.4 µg/mL
same,"Antimicrobial activity, MBC",[8]; [13],2 µM
same,"Antimicrobial activity, MBC",[8]; [14],5.7 µg/mL
same,"Antimicrobial activity, MBC",[9]; [13],2 µM
same,"Antimicrobial activity, MBC",[9]; [14],5.7 µg/mL
same,Cell viability / cytotoxicity (MTT),[10],significantly decreased
same,Cell viability / cytotoxicity (MTT),[11],significantly decreased
same,Cell viability / cytotoxicity (MTT),[12],significantly decreased
